The series is described as follows: Multiple-dose PK of API-in-capsule formulation BID for 10 days in healthy human subjects. Format: in vivo. The procedure:
The mean CSF to unbound plasma ratio was about 1.0. Data shown is from 25, 80, and100 mg BID multiple dose cohorts.
Formula I compound was administered to healthy young human subjects as an API-in- capsule formulation at doses of 25 mg, 40 mg, 80 mg and 100 mg BID, and to healthy elder subjects at 80 mg BID. Formula I compound concentrations were determined on Day 1 and 10 and at trough on selected day during the 10 days of administration. […] The terminal half-life, and plasma concentrations and pS935 inhibition at trough (minima) are consistent with twice-daily administration as an efficacious regimen.
[…] variability in the ratio was seen because of the parallel (non-crossover) nature of the study design. […] Physiologically-based PK modelling, was used to predict the Cmax/Cmin ratio for MUPS formulations contain various amounts of KOLLICOAT® polymer.

For `CNc1nc(Nc2cn(C(C)(C)C#N)nc2C)ncc1C(F)(F)F` [Formula I compound, 2-methyl-2-(3-methyl-4-(4-(methylamino)-5-(trifluoromethyl)pyrimidin-2-ylamino)-1H-pyrazol-1-yl)propanenitrile], the “plasma Cmax and AUC versus dose” value (25 to 100 mg BID dose range) is “dose-proportional”. Besides, the Kp at 10 day (human, CSF / unbound plasma, oral, healthy young and healthy elderly, Day 10, 25, 80 and 100 mg BID immediate release capsule, read-out: mean CSF to unbound plasma ratio) was approximately 1. Also, under “human, plasma, oral, postdose Day 10, 25-100 mg BID, read-out: terminal half-life in plasma”, the half-life (usually how long it takes for the measured level to halve) fell in the range of 14 to 26 h.

(Values after patent US20220249479A1, “MODIFIED RELEASE FORMULATION OF A PYRIMIDINYLAMINO-PYRAZOLE COMPOUND, AND METHODS OF TREATMENT” (DENALI THERAPEUTICS INC., priority 2019, published 2022).)
